Measured values reported in the kinase profiling compilation of Christmann-Franck et al. (2016).

Key:
Assay in all cases: KINOMEscan competition binding
Details in all cases: compound 1.0 µM
AURKB (human) = AURKB (human) (UniProt Q96GD4)
CASK (human) = CASK (human) (UniProt O14936)
CDK18 (human) = CDK18 (human) (UniProt Q07002)
CDK2 (human) = CDK2 (human) (UniProt P24941)
CDKL1 (human) = CDKL1 (human) (UniProt Q00532)
DCLK3 (human) = DCLK3 (human) (UniProt Q9C098)
[1] = tested on: EGFR (human), P00533 [P753S; 747-752 del]
EIF2AK2 (human) = EIF2AK2 (human) (UniProt P19525)
EPHA5 (human) = EPHA5 (human) (UniProt P54756)
EPHB1 (human) = EPHB1 (human) (UniProt P54762)
[2] = tested on: FLT3 (human), P36888 [D835H]
[3] = tested on: FLT3 (human), P36888 [D835Y]
[4] = tested on: FLT3 (human), P36888 [N841I]
GRK4 (human) = GRK4 (human) (UniProt P32298)
GSG2 (human) = GSG2 (human) (UniProt Q8TF76)
[5] = target: JAK1 JH2 pseudokinase (human) (UniProt P23458)
KDR (human) = KDR (human) (UniProt P35968)
LATS2 (human) = LATS2 (human) (UniProt Q9NRM7)
MAPKAPK2 (human) = MAPKAPK2 (human) (UniProt P49137)
MARK2 (human) = MARK2 (human) (UniProt Q7KZI7)
MET (human) = MET (human) (UniProt P08581)
NEK5 (human) = NEK5 (human) (UniProt Q6P3R8)
NIM1 (human) = NIM1 (human) (UniProt Q8IY84)
OXSR1 (human) = OXSR1 (human) (UniProt O95747)
[6] = tested on: PIK3CA (human), P42336 [E542K]
[7] = tested on: PIK3CA (human), P42336 [E545A]
[8] = tested on: PIK3CA (human), P42336 [H1047L]
PIP5K1C (human) = PIP5K1C (human) (UniProt O60331)
PRPF4B (human) = PRPF4B (human) (UniProt Q13523)
[9] = tested on: RET (human), P07949 [V804L]
RIOK3 (human) = RIOK3 (human) (UniProt O14730)
SBK1 (human) = SBK1 (human) (UniProt Q52WX2)
SIK2 (human) = SIK2 (human) (UniProt Q9H0K1)
STK10 (human) = STK10 (human) (UniProt O94804)
STK11 (human) = STK11 (human) (UniProt Q15831)
STK17A (human) = STK17A (human) (UniProt Q9UEE5)
SYK (human) = SYK (human) (UniProt P43405)
TLK1 (human) = TLK1 (human) (UniProt Q9UKI8)
TNK1 (human) = TNK1 (human) (UniProt Q13470)

Sequence of RIOK3 (human) (O14730 whole entry, looked up): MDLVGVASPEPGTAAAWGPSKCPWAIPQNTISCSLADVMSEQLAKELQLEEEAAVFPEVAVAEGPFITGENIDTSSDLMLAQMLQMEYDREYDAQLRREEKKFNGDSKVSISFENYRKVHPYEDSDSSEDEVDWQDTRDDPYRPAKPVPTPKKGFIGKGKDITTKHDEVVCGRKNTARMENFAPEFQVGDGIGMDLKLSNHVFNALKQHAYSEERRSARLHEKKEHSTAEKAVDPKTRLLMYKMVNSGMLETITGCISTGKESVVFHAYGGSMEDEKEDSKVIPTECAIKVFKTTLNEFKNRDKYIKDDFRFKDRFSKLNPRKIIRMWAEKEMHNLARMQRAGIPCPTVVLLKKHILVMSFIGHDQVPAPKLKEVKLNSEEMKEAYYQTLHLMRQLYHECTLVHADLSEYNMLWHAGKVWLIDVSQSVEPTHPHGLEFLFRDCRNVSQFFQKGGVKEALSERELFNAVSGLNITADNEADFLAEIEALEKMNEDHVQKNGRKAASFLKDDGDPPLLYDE
Sequence of STK11 (human) (Q15831 whole entry, looked up): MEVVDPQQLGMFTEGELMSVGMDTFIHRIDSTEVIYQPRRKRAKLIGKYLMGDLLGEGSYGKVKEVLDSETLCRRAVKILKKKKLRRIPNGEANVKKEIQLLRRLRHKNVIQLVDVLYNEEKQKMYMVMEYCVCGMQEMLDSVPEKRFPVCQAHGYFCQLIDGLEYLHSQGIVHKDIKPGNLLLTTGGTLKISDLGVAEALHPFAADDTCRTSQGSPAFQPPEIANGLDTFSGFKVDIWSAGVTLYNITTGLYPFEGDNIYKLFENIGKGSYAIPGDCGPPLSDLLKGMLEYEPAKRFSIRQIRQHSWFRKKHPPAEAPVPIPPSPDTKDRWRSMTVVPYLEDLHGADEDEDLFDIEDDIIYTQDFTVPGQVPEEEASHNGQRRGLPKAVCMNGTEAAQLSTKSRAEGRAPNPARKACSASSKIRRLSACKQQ
Sequence of CDK18 (human) (Q07002 whole entry, looked up): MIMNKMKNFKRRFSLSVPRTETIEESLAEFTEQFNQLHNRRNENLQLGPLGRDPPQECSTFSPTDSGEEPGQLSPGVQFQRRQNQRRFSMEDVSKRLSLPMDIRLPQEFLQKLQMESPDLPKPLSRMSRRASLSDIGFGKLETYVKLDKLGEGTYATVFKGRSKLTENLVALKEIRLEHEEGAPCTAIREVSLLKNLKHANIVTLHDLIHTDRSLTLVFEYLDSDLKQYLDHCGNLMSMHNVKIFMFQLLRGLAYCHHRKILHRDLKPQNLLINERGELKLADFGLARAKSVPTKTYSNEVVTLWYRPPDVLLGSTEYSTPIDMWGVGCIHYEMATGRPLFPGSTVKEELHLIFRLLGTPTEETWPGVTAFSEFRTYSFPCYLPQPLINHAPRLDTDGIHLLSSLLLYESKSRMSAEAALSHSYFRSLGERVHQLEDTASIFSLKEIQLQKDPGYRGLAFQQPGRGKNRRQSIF
Sequence of LATS2 (human) (Q9NRM7 whole entry, looked up): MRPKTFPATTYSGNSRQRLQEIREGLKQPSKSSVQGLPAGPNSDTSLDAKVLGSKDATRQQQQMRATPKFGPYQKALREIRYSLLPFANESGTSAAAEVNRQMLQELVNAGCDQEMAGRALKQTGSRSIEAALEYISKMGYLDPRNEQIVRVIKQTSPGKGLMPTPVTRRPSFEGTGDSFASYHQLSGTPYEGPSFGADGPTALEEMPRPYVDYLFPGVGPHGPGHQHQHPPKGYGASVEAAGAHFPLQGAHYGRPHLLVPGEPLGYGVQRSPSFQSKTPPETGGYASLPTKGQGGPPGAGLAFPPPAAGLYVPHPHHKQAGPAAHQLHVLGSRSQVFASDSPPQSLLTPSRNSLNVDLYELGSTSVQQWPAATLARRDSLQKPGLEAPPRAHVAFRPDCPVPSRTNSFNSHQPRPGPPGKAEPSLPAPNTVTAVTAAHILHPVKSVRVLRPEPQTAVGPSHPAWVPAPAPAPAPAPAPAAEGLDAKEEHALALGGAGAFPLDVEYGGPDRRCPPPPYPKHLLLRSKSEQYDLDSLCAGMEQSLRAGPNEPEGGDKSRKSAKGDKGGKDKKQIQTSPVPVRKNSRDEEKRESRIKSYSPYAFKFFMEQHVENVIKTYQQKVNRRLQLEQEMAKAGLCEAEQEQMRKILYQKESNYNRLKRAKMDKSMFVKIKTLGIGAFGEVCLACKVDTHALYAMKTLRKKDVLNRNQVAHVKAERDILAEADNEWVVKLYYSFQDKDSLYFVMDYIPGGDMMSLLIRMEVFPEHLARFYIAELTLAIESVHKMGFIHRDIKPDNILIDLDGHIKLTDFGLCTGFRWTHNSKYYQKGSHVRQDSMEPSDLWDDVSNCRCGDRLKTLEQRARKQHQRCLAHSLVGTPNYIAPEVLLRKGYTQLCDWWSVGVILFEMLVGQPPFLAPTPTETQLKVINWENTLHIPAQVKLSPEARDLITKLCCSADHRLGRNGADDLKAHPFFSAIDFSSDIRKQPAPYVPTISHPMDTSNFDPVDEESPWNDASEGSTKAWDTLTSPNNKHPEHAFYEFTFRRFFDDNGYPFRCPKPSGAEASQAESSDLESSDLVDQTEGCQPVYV
Sequence of MET (human) (P08581 whole entry, looked up): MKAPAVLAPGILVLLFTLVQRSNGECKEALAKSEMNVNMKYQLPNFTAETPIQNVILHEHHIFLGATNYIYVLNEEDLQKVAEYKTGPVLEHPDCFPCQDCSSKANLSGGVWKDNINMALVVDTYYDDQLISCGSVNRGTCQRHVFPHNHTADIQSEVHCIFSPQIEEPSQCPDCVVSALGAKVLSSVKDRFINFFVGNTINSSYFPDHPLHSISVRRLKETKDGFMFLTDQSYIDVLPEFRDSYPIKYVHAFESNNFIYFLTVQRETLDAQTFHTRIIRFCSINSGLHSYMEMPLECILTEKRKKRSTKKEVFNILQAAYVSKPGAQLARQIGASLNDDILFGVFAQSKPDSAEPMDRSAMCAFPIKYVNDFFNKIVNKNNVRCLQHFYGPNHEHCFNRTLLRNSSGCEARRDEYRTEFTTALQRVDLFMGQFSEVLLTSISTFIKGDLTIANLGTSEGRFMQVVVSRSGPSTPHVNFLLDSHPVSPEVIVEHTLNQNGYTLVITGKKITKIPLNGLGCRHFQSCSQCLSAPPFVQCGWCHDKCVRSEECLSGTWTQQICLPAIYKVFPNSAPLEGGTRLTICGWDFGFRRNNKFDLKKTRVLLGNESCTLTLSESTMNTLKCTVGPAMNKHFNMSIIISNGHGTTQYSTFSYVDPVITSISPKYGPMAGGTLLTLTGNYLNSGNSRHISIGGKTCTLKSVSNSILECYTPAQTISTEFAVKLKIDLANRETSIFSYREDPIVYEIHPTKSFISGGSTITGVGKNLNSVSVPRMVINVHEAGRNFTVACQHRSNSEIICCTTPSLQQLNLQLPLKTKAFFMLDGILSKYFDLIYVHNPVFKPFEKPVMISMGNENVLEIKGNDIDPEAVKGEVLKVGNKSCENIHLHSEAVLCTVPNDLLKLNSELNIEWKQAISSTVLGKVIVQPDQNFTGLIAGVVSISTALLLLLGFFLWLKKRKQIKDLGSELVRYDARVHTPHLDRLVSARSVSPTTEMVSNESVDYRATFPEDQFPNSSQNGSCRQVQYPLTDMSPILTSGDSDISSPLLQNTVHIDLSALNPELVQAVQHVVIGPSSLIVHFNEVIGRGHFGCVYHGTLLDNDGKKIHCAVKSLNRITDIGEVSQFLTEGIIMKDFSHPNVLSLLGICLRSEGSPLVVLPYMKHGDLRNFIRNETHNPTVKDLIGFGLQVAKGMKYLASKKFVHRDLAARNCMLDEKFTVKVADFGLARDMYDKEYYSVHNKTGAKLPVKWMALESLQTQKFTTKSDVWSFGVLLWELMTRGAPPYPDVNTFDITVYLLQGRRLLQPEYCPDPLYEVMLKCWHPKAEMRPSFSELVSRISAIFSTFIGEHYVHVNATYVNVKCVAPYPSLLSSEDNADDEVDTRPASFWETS
Sequence of STK17A (human) (Q9UEE5 whole entry, looked up): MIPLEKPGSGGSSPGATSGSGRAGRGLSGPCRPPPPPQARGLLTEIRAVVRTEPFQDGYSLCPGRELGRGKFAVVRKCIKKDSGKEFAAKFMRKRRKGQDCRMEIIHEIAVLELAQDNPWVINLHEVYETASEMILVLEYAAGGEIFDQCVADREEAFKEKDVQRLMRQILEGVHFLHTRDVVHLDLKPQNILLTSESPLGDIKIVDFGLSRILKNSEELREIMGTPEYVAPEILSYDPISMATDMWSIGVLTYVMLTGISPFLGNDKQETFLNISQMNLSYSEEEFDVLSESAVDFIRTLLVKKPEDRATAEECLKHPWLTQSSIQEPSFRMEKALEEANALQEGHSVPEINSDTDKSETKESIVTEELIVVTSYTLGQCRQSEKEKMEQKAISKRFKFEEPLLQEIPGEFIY
Sequence of OXSR1 (human) (O95747 whole entry, looked up): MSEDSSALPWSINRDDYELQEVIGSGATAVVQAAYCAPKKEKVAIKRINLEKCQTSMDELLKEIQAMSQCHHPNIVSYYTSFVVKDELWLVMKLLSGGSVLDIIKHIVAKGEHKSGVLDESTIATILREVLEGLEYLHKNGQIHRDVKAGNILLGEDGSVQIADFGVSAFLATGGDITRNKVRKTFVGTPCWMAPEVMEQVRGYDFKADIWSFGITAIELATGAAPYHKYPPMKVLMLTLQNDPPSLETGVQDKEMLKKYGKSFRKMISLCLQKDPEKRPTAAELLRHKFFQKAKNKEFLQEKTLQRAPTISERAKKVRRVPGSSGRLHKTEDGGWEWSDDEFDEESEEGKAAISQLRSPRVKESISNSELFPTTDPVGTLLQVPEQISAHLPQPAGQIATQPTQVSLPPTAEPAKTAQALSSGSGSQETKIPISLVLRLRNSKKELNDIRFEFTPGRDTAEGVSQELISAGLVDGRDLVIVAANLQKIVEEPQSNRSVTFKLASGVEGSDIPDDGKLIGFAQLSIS

**Q.** How did the kinase still bound, per cent of control (AURKB (human)) turn out when `CNc1nc(Nc2ccc(C(=O)N3CCOCC3)cc2OC)ncc1Cl` was run?
**A.** 100%

**Q.** What about the kinase still bound, per cent of control (CASK (human)) of the same compound?
**A.** 97%

**Q.** And the residual activity (CDK18 (human))?
**A.** 98%

**Q.** And the residual activity (CDK2 (human))?
**A.** 95%

**Q.** What about the residual activity (CDKL1 (human)) of the same compound?
**A.** 100%

**Q.** And the kinase still bound, per cent of control (DCLK3 (human))?
**A.** 100%

**Q.** And the kinase still bound, per cent of control [1]?
**A.** 89%

**Q.** And the kinase still bound, per cent of control (EIF2AK2 (human))?
**A.** 100%

**Q.** And the kinase still bound, per cent of control (EPHA5 (human))?
**A.** 100%

**Q.** And the kinase still bound, per cent of control (EPHB1 (human))?
**A.** 100%

**Q.** What about the kinase still bound, per cent of control [2] of the same compound?
**A.** 78%

**Q.** What about the kinase still bound, per cent of control [3] of the same compound?
**A.** 72%

**Q.** And the kinase still bound, per cent of control [4]?
**A.** 73%

**Q.** What about the kinase still bound, per cent of control (GRK4 (human)) of the same compound?
**A.** 75%

**Q.** What about the kinase still bound, per cent of control (GSG2 (human)) of the same compound?
**A.** 74%

**Q.** And the kinase still bound, per cent of control [5]?
**A.** 90%

**Q.** And the kinase still bound, per cent of control (KDR (human))?
**A.** 87%

**Q.** And the kinase still bound, per cent of control (LATS2 (human))?
**A.** 100%

**Q.** What about the kinase still bound, per cent of control (MAPKAPK2 (human)) of the same compound?
**A.** 95%

**Q.** What about the kinase still bound, per cent of control (MARK2 (human)) of the same compound?
**A.** 100%

**Q.** What about the kinase still bound, per cent of control (MET (human)) of the same compound?
**A.** 100%

**Q.** What about the kinase still bound, per cent of control (NEK5 (human)) of the same compound?
**A.** 100%

**Q.** What about the kinase still bound, per cent of control (NIM1 (human)) of the same compound?
**A.** 100%

**Q.** And the kinase still bound, per cent of control (OXSR1 (human))?
**A.** 100%

**Q.** And the kinase still bound, per cent of control [6]?
**A.** 100%

**Q.** What about the kinase still bound, per cent of control [7] of the same compound?
**A.** 68%

**Q.** And the kinase still bound, per cent of control [8]?
**A.** 100%

**Q.** What about the kinase still bound, per cent of control (PIP5K1C (human)) of the same compound?
**A.** 99%

**Q.** What about the kinase still bound, per cent of control (PRPF4B (human)) of the same compound?
**A.** 98%

**Q.** What about the kinase still bound, per cent of control [9] of the same compound?
**A.** 99%

**Q.** And the kinase still bound, per cent of control (RIOK3 (human))?
**A.** 87%

**Q.** What about the kinase still bound, per cent of control (SBK1 (human)) of the same compound?
**A.** 100%

**Q.** And the kinase still bound, per cent of control (SIK2 (human))?
**A.** 100%

**Q.** What about the kinase still bound, per cent of control (STK10 (human)) of the same compound?
**A.** 100%

**Q.** And the kinase still bound, per cent of control (STK11 (human))?
**A.** 90%

**Q.** And the kinase still bound, per cent of control (STK17A (human))?
**A.** 53%

**Q.** What about the kinase still bound, per cent of control (SYK (human)) of the same compound?
**A.** 100%

**Q.** What about the kinase still bound, per cent of control (TLK1 (human)) of the same compound?
**A.** 93%

**Q.** And the kinase still bound, per cent of control (TNK1 (human))?
**A.** 66%
